In the test the target is T1, ERα (Homo sapiens, UniProt P03372).
T1 construct: host or cells: MCF7
T1 sequence (P03372 1-595): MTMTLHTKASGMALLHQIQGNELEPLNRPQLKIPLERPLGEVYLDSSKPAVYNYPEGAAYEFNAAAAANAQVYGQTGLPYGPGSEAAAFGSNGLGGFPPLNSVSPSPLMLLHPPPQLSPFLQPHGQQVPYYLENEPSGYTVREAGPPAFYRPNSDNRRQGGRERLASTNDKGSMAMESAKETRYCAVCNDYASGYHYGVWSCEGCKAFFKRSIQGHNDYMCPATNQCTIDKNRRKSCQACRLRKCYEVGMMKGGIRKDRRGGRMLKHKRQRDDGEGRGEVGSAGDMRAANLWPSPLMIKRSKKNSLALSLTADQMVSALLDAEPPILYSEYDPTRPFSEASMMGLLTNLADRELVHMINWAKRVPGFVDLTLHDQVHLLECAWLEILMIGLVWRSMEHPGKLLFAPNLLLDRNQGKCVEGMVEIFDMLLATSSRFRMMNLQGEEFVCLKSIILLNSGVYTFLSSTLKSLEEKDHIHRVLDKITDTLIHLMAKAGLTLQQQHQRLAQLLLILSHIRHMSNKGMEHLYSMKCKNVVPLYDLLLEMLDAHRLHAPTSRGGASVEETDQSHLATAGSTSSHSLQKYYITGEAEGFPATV
Nature of the test: Estrogen receptor degradation activity: breast cancer cell ERα in cell western assay (MCF7 cells). The class given is cell-based. Conditions: for % Degradation At 0.3 μM: 4 hours, relative to fulvestrant 0.1 μM positive control; for DC50: read-out: Degradation IC50. The procedure, abridged:
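Compounds were applied to MCF7 cells in stripped-serum, phenol red-free medium for 4 h at final 0.3–0.0000018 μM, with fulvestrant (0.1 μM) as control. Value: IC50 (nM) for 50% ERα degradation.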

Where [1] appears, read: 4 hours post compound addition, concentration which degrades 50% of the estrogen receptor.

On to `COc1cc(F)ccc1C1=C(c2ccc(CC3CN(CCCF)C3)cc2)c2ccc(C(=O)O)cc2CCC1` [Example 36, 8-(4-fluoro-2-methoxyphenyl)-9-(4-((1-(3-fluoropropyl)azetidin-3-yl)methyl)phenyl)-6,7-dihydro-5H-benzo[7]annulene-3-carboxylic acid], for which the “% Degradation At 0.3 μM” value is 89%. For the same compound, the DC50 under setting [1] worked out at 0.6 nM.
As for `Cc1cc(C2=C(c3ccc(Cl)cc3Cl)CCCc3cc(C(=O)O)ccc32)ccc1CC1CN(CCCF)C1.Cl` [Example 48, 8-(2,4-dichlorophenyl)-9-(4-((1-(3-fluoropropyl)azetidin-3-yl)methyl)-3-methylphenyl)-6,7-dihydro-5H-benzo[7]annulene-3-carboxylic acid], the “% Degradation At 0.3 μM” value is 86%. Besides, the DC50 under setting [1] turned out to be 0.5 nM.
On to `N#Cc1cc2c(cc1C(=O)O)CCCC(c1ccc(Cl)cc1Cl)=C2c1ccc(CC2CN(CCCF)C2)cc1` [Example 245, 2-cyano-8-(2,4-dichlorophenyl)-9-(4-((1-(3-fluoropropyl)azetidin-3-yl)methyl)phenyl)-6,7-dihydro-5H-benzo[7]annulene-3-carboxylic acid], for which the “% Degradation At 0.3 μM” value was 100%. Further, the DC50 under setting [1] amounted to 269 nM.
The like results for `O=C(O)c1ccc2c(c1)CCCC(C1CC3CCC1C3)=C2c1ccc(CC2CN(CCCF)C2)cc1` (mixture of isomers) [Example 307, 8-(bicyclo[2.2.1]heptan-2-yl)-9-(4-((1-(3-fluoropropyl)azetidin-3-yl)methyl)phenyl)-6,7-dihydro-5H-benzo[7]annulene-3-carboxylic acid] were, in that order, 84% and 0.4 nM.
Taken in the same sequence, the figures for `O=C(O)c1ccc2c(c1)CCCC(c1ccccc1C(F)(F)F)=C2c1ccc(CC2CN(CCCF)C2)cc1` [Example 23, 9-(4-((1-(3-fluoropropyl)azetidin-3-yl)methyl)phenyl)-8-(2-(trifluoromethyl)phenyl)-6,7-dihydro-5H-benzo[7]annulene-3-carboxylic acid] were 91% and 0.2 nM.
Taken in the same sequence, the figures for `CCC(CC)CC1=C(c2ccc(CC3CN(CCCF)C3)cc2)c2ccc(C(=O)O)cc2CCC1` [Example 231, 8-(2-Ethylbutyl)-9-(4-((1-(3-fluoropropyl)azetidin-3-yl)methyl)phenyl)-6,7-dihydro-5H-benzo[7]annulene-3-carboxylic Acid] were 83% and 0.3 nM.
As for `COc1c(F)cccc1C1=C(c2ccc(CC3CN(CCCF)C3)cc2)c2ccc(C(=O)O)cc2CCC1` [Example 335, 8-(3-fluoro-2-methoxyphenyl)-9-(4-((1-(3-fluoropropyl)azetidin-3-yl)methyl)phenyl)-6,7-dihydro-5H-benzo[7]annulene-3-carboxylic acid], the “% Degradation At 0.3 μM” value is listed as 93%. Besides, the DC50 under setting [1] was 0.6 nM.
The like results for `O=C(O)c1ccc2c(c1)CCCC(c1cc(CC(F)(F)F)ccc1F)=C2c1ccc(CC2CN(CCCF)C2)cc1` [Example 295, 8-(2-fluoro-5-(2,2,2-trifluoroethyl)phenyl)-9-(4-((1-(3-fluoropropyl)azetidin-3-yl)methyl)phenyl)-6,7-dihydro-5H-benzo[7]annulene-3-carboxylic acid] were, in that order, 86% and 0.7 nM.
`O=C(O)c1ccc2c(c1)CCCC(c1ccc(F)c(CC(F)(F)F)c1)=C2c1ccc(CC2CN(CCCF)C2)cc1` [Example 290, 8-(4-fluoro-3-(2,2,2-trifluoroethyl)phenyl)-9-(4-((1-(3-fluoropropyl)azetidin-3-yl)methyl)phenyl)-6,7-dihydro-5H-benzo[7]annulene-3-carboxylic acid]: the “% Degradation At 0.3 μM” value is given as 84%. Besides, under setting [1], the DC50 is 0.8 nM.
The like results for `N#Cc1c(C(=O)O)ccc2c1CCCC(c1ccc(Cl)cc1Cl)=C2c1ccc(CC2CN(CCCF)C2)cc1.O=CO` [Example 246, 4-cyano-8-(2,4-dichlorophenyl)-9-(4-((1-(3-fluoropropyl)azetidin-3-yl)methyl)phenyl)-6,7-dihydro-5H-benzo[7]annulene-3-carboxylic acid, formic acid] were, in that order, 73% and 31.6 nM.
Taken in the same sequence, the figures for `Cc1ccc(C2=C(c3ccc(CC4CN(CCCF)C4)cc3)c3ccc(C(=O)O)cc3CCC2)c(Cl)c1.Cl` [Example 7, 8-(2-chloro-4-methylphenyl)-9-(4-((1-(3-fluoropropyl)azetidin-3-yl)methyl)phenyl)-6,7-dihydro-5H-benzo[7]annulene-3-carboxylic acid] were 90% and 0.5 nM.
On to `CC1CCc2cc(C(=O)O)ccc2C(c2ccc(CC3CN(CCCF)C3)cc2)=C1c1ccc(Cl)cc1` (single isomer, unassigned) [Example 328, 18-(4-chlorophenyl)-9-(4-((1-(3-fluoropropyl)azetidin-3-yl)methyl)phenyl)-7-methyl-6,7-dihydro-5H-benzo[7]annulene-3-carboxylic acid], for which the “% Degradation At 0.3 μM” value stood at 88%. The DC50 under setting [1] was determined as 0.4 nM.
Consider `Cc1cccc(C2=C(c3ccc(CC4CN(CCC(F)F)C4)cc3)c3ccc(C(=O)O)cc3CCC2)c1Cl` [Example 277, 8-(2-chloro-3-methylphenyl)-9-(4-((1-(3,3-difluoropropyl)azetidin-3-yl)methyl)phenyl)-6,7-dihydro-5H-benzo[7]annulene-3-carboxylic acid], for which the “% Degradation At 0.3 μM” value was 82%. For the same compound, under setting [1], the DC50 is 0.3 nM.
The like results for `O=C(O)c1cc2c(cc1Cl)C(c1ccc(CC3CN(CCCF)C3)cc1)=C(c1ccc(Cl)cc1Cl)CCC2` [Example 248, 2-chloro-8-(2,4-dichlorophenyl)-9-(4-((1-(3-fluoropropyl)azetidin-3-yl)methyl)phenyl)-6,7-dihydro-5H-benzo[7]annulene-3-carboxylic acid] were, in that order, 90% and 2.2 nM.
The like results for `O=C(O)c1c(F)cc2c(c1F)CCCC(c1ccccc1Cl)=C2c1ccc(CC2CN(CCCF)C2)cc1` [Example 224] were, in that order, 82% and 43 nM.
Consider `Cc1c(Cl)cccc1C1=C(c2ccc(CC3CN(CCCF)C3)cc2)c2ccc(C(=O)O)cc2CCC1.Cl` [Example 212, 8-(3-chloro-2-methylphenyl)-9-(4-((1-(3-fluoropropyl)azetidin-3-yl)methyl)phenyl)-6,7-dihydro-5H-benzo[7]annulene-3-carboxylic acid hydrochloride], for which the “% Degradation At 0.3 μM” value is 87%. The compound further displayed an IC50 under setting [1] of 0.1 nM.
Turning to `Cl.O=C(O)c1ccc2c(c1)CCCC(c1cc(F)ccc1C(F)(F)F)=C2c1ccc(CC2CN(CCCF)C2)cc1` [Example 332, 8-(5-fluoro-2-(trifluoromethyl)phenyl)-9-(4-((1-(3-fluoropropyl)azetidin-3-yl)methyl)phenyl)-6,7-dihydro-5H-benzo[7]annulene-3-carboxylic acid hydrochloride], the “% Degradation At 0.3 μM” value is reported as 85%. Also, the DC50 under setting [1] was determined as 0.4 nM.
As to `O=C(O)c1ccc2c(c1)CCCC(c1ccc(F)cc1C(F)(F)F)=C2c1ccc(CC2CN(CCC(F)F)C2)cc1` [Example 276, 9-(4-((1-(3,3-difluoropropyl)azetidin-3-yl)methyl)phenyl)-8-(4-fluoro-2-(trifluoromethyl)phenyl)-6,7-dihydro-5H-benzo[7]annulene-3-carboxylic acid], the “% Degradation At 0.3 μM” value worked out at 85%. Also, the DC50 under setting [1] is 0.4 nM.

A word on the IC50: it is the concentration that inhibits the measured activity by half. The low end stands for greater potency in that assay, the high end for weaker potency in that assay.

Values taken from patent US12595230B2, “Substituted 6,7-dihydro-5H-benzo[7]annulene compounds and their derivatives, processes for their preparation and therapeutic uses thereof” (Sanofi, priority 2020, dated 2026).
